Laboratory results: patent US4443619A, “Chlorocitric acids” (Hoffmann-La Roche Inc., priority 1981, dated 1984)

Key:
[1] = Effect of stereoisomers of chlorocitric acid on food consumption in meal-fed rats (Example 14); assay type: in vivo, Charles River female rats; conditions: 2.63 mmoles/kg oral, mean ± S.E.; control 13.5 ± 0.8
Description: Animals were fasted 48 hr, then meal-fed the 70% glucose diet described by A. C. […] Following 5 to 12 days alimentation on the meal-feeding regimen, rats were dosed with the appropriate compounds orally by intubation 1/2 hr before the 3 hr meal. Food cups were weighed immediately after the meal. The control group consisted of 5 to 10 rats, while the experimental group consisted of 4 to 6 rats.

[2] = Body weight gain in 8 hour meal-fed Zucker rats (Example 18); assay type: in vivo, lean (Fa/-) and obese (fa/fa); conditions: 1.32 mmoles/kg b.i.d. oral, 6 days, mean ± S.E.
Description: (§1) Lean (Fa/-) Zucker rats and obese (fa/fa) Zucker rats of both sexes were individually housed in wire-bottomed cages in a temperature-regulated (22° C.) light-controlled room (12 hr light, 6 a.m. to 6 p.m. and 12 hr dark, 6 p.m. to 6 a.m.). The animals were fed a high carbohydrate (70% glucose) diet ad libitum for 13 days, dosed with the indicated compounds by oral intubation for 9 days and allowed to recover for 3 days. The animals were then meal fed from 8 a.m. to 4 p.m. for a period of 5 days, following which they were continued on the same meal schedule for an additional 6 days. During the 6-day period, the animals were administered the indicated compounds by oral intubation at 8 a.m. and 12 p.m. Body weight gain during the 6-day period was determined.

[3] = Anorectic activity, body weight and carcass analysis in mammals (summary statements); assay type: in vivo; conditions: acute meal-fed assay utilizing three diets and pyramiding dose studies; compared with hydroxycitric acid
[4] = Anorectic effect in 8 hour meal-fed Zucker rats (Example 17); assay type: in vivo, lean (Fa/-) and obese (fa/fa)
Description: as §1, with “p.m.” for “p.m. to”, “Food cups were weighed immediately after” for “Body weight gain during”, “meal.” for “6-day period was determined.”

Fatty Acid Synthesis = assay: Fatty acid synthesis in pair-feeding experiments in rats (Example 24); assay type: in vivo, female rats of the Charles River CD strain
Description: Female rats of the Charles River CD strain (Charles River Breeding Laboratories, Wilmington, Mass.) weighing 120-160 g (ca. […] old) were housed individually in wire-bottomed cages in a temperature-regulated (22 C.), light-controlled room (12 hour light 6 A.M.-6 P.M., and dark 6 P.M.-6 A.M.). They had free access to water and were fed a commercial diet (Purina Rodent Chow, Ralston Purina Co., St. Louis, Mo.) ad libitum for at least 1 week prior to the experiment. Animals were fasted 48 hours, then meal-fed a synthetic diet (G-70) daily from 8-11 A.M. for the remainder of the experiment. Food consumption and body weight were measured during the meal-feeding period. […] Food spillage was measured daily.
Each group consisted of 8 to 10 (140 to 160 g) rats. Food intake was monitored for a 3 day period; the animals were dosed immediately before the 3 hr meal. Pair-fed animals were fed the amount of food which the drug treated groups ate on the previous days (days 2 and 3).
Immediately after the 3 hour feeding period, rats were administered intravenously a 0.25 ml saline (pH 7.4 to 7.6) solution with the following composition: 12.3 mg alanine, 5 μCi [^14 C] alanine (specific activity=156 mCi/mmole), 30.6 mg-ketoglutarate (as an amine acceptor for transaminase) and 1 mCi [^3 H] water (specific activity=100 mCi/g). […] [^3 H] Water was employed to determine the total rate of lipogenesis, since tritium is incorporated into fatty acids independent of the source of carbon precursors. Animals were killed by decapitation and blood collected in centrifuge tubes 30 minutes after the radioactive pulse, unless otherwise indicated. The specific radioactivity of the body water of each rat was determined by counting a diluted serum aliquot in 10 ml following cocktail: toluene (2.41), 2-methoxyethanol (1.61), naphthalene (320 g), and BBOT (2,5-bis-2-(5-tert-butylbenzoxazolyl)-thiophene, 16 g). Liver, and small intestine was excised rapidly, weighed, and homogenized in 15 ml H2 O in a Virtis 45 Macro Homogenizer for 15 sec at ca. 30,000 rpm. Duplicate 3 ml aliquots of whole homogenates were saponified, extracted, and the absolute radioactivity (dpm) determined. Liver lipids were extracted totally or separated into fatty acids and cholesterol by anion exchange chromatography. It was determined by anion exchange chromatography that the total lipid extract of liver contained fatty acids (96-97%) and cholesterol (3-4%). Data are expressed as nmoles [^14 C] alanine or μ moles [^3 H] water converted into lipid/g tissue/30 minutes. The nmoles [^14 C] alanine were calculated according to the injected load of alanine, as reported previously by A. C. Sullivan et al., Arch. Biochem. and Biophys., 150, 183 (1972). The μ moles [^3 H] water were determined as described previously by A. C. […]

[5] = Comparative anorectic activity: food consumption in meal-fed rats (acute, Example 13); assay type: in vivo, Charles River female rats; conditions: 3 hr meal, mean ± S.E.
Description: Charles River female rats (Charles River Breeding Laboratories, Wilmington, Mass.), weighing 150 to 175 g, were individually housed in wire-bottomed cages in a temperature-regulated (22° C.) light-controlled room (12 hr light, 6 a.m. to 6 p.m. and 12 hr dark, 6 p.m. to 6 a.m.). Animals were fasted 48 hr, then meal-fed the 70% glucose diet described by A. C. Sullivan, et al., J. Nutrition, 101, 265 (1971) from 8 to 11 a.m. Following 5 to 13 days alimentation on the meal-feeding regimen, rats were dosed with the appropriate compounds orally by intubation 1/2 hr before the 3 hr meal. Food cups were weighed immediately after the meal. The control group consists of 31 rats while each drug treated group consists of 5 to 12 rats.
The G-70 diet consisted of 70% glucose, 23% vitamin-free casein, 5% Phillips and Hart salt mixture IV, 1% corn oil, 1% complete vitamin mixture, and 40 g/kg cellulose. To ensure complete uniformity, all diets were mixed with a twen-shell dry blender equipped with an itensifier bar (Patterson-Kelly Co., East Stroudsburg, Pa.).

Stomach Emptying = assay: Effect on stomach emptying ([14C]glucose load) in rats (Example 25); assay type: in vivo
Description: Rats were trained to consume a 3 hr 70% glucose meal from 8 a.m. to 11 a.m. daily. On the experimental day, compounds were administered orally by intubation 30 min before a [^14 C]glucose load was given also by intubation. […] Sixty minutes later the rats were killed by decapitation; blood and stomachs were collected on ice.
Data are expressed as follows: dpm×10^3 per ml of serum and dpm×10^3 per stomach.

[6] = Food intake in dogs, pyramiding oral doses (Examples 26 and 27); assay type: in vivo, beagle dogs
Description: Twelve beagle dogs of both sexes weighing 7.6-12.2 kg were used for this test. The test compounds were contained in gelatin capsules for oral administration to two dogs of each sex. The animals were weighed and food consumption calculated daily excluding weekends throughout the test period. Each animal received 800 grams of diet daily consisting of 400 grams of Wayne pellet dog food mixed with 400 ml distilled water. The animals received pyramiding oral doses of the test compound over the three week period. On Monday and Tuesday of the first week the animals were weighed and food consumption was recorded (control). The animals received 3 mg/kg on Wednesday and 10 mg/kg on Friday of the first week. Doses of 30, 100 and 300 mg/kg were administered on Monday, Wednesday and Friday respectively during the second week. A final dose of 1000 mg/kg was administered on Monday of the third week.
Food intake was determined by the procedure by pyramiding doses described in Example 26.

[7] = system: fatty acid and cholesterol syntheses; assay: Inhibition of fatty acid, lipid and cholesterol synthesis (summary statements)
[8] = Fa/- lean, 1.32 mmoles/kg oral, treatment day 1
[9] = Fa/- lean, 1.32 mmoles/kg oral, treatment day 2
[10] = Fa/- lean, 1.32 mmoles/kg oral, treatment day 3
[11] = Fa/- lean, 1.32 mmoles/kg oral, treatment day 4
[12] = Fa/- lean, 1.32 mmoles/kg oral, treatment day 5
[13] = Fa/- lean, 1.32 mmoles/kg oral, treatment day 6
[14] = Fa/- lean, 1.32 mmoles/kg, day 0 (pretreatment)
[15] = fa/fa obese, 1.32 mmoles/kg oral, treatment day 1
[16] = fa/fa obese, 1.32 mmoles/kg oral, treatment day 2
[17] = fa/fa obese, 1.32 mmoles/kg oral, treatment day 3
[18] = fa/fa obese, 1.32 mmoles/kg oral, treatment day 4
[19] = fa/fa obese, 1.32 mmoles/kg oral, treatment day 5
[20] = fa/fa obese, 1.32 mmoles/kg oral, treatment day 6
[21] = fa/fa obese, 1.32 mmoles/kg, day 0 (pretreatment)
[22] = 0.33 mmoles/kg oral, 60 min after [14C]glucose load, mean ± S.E.
[23] = test day 20, no dose, (±) one animal, (+) and (-) two animals

Structure (SMILES) | Body Weight Gain ([2]; Fa/- lean) | Body Weight Gain ([2]; fa/fa obese) | Daily Food Consumption [4, 8] | Daily Food Consumption [4, 9] | Daily Food Consumption [4, 10] | Daily Food Consumption [4, 11] | Daily Food Consumption [4, 12] | Daily Food Consumption [4, 13] | Daily Food Consumption [4, 14] | Daily Food Consumption [4, 15] | Daily Food Consumption [4, 16] | Daily Food Consumption [4, 17] | Daily Food Consumption [4, 18] | Daily Food Consumption [4, 19] | Daily Food Consumption [4, 20] | Daily Food Consumption [4, 21] | Food consumption ([5]; 0.33 mmoles/kg oral) | Food consumption ([5]; 0.66 mmoles/kg oral) | Food consumption ([5]; 1.32 mmoles/kg oral) | Food consumption ([5]; 2.63 mmoles/kg oral) | also measured
O=C(O)CC(O)(CC(=O)O)C(=O)O [Citric Acid] | 2.8 ± 3.7 g | 3.4 ± 1.6 g | 10.6 ± 1.2 g | 10.0 ± 1.2 g | 12.7 ± 1.0 g | 11.9 ± 0.7 g | 12.6 ± 0.8 g | 13.1 ± 0.9 g | 11.0 ± 0.8 g | 11.4 ± 0.8 g | 13.8 ± 1.2 g | 16.5 ± 1.0 g | 14.8 ± 0.9 g | 15.7 g | 16.0 ± 1.0 g | 13.4 ± 0.8 g |  |  |  |  | Food consumption [1]: 12.7 ± 1.7 g; anorectic activity as measured by reduction in food consumption [3]: inactive
O=C(O)C[C@@](O)(C(=O)O)[C@H](O)C(=O)O [Trisodium (-)-threo-hydroxycitrate, reference compound] |  |  |  |  |  |  |  |  |  |  |  |  |  |  |  |  | 11.5 ± 0.7 g | 9.0 ± 0.6 g | 9.9 ± 1.0 g | 8.9 ± 0.8 g | Fatty Acid Synthesis, 3H2O converted (Fatty Acid Synthesis; 2.63 mmoles/kg, pair-fed control 21.3 ± 2.3): 14.4 ± 1.6 μmoles ^3 H2 O converted/g liv; Fatty Acid Synthesis, [14C]alanine converted (Fatty Acid Synthesis; 2.63 mmoles/kg, pair-fed control 714 ± 86): 279 ± 36 nmoles [^14 C]alanine converte; Serum, total per ml (Stomach Emptying; [22]): 4.5 ± 0.3 dpm × 10^3; Stomach Contents, total per stomach (Stomach Emptying; [22]): 1973 ± 154 dpm × 10^3
O=C(O)C[C@@](O)(C(=O)O)[C@@H](Cl)C(=O)O (relative stereo) [(±)-threo-Chlorocitric acid] | -22.9 ± 2.9 g | -27.9 ± 4.6 g | 11.6 ± 0.8 g | 7.5 ± 0.8 g | 8.6 ± 1.3 g | 6.9 ± 1.0 g | 6.1 ± 0.7 g | 7.2 ± 1.0 g | 12.3 ± 0.7 g | 13.1 ± 0.9 g | 7.8 ± 0.8 g | 6.6 ± 0.2 g | 5.9 ± 0.8 g | 4.6 ± 1.1 g | 5.3 ± 1.3 g | 14.3 ± 0.8 g | 5.7 ± 0.5 g | 3.9 ± 0.3 g | 3.1 ± 0.4 g | 3.8 ± 0.3 g | Fatty Acid Synthesis, 3H2O converted (Fatty Acid Synthesis; 1.32 mmoles/kg, pair-fed control 25.6 ± 3.9): 21.4 ± 1.6 μmoles ^3 H2 O converted/g liv; Fatty Acid Synthesis, [14C]alanine converted (Fatty Acid Synthesis; 1.32 mmoles/kg, pair-fed control 639 ± 69): 809 ± 67 nmoles [^14 C]alanine converte; Food consumption ([5]; 0.08 mmoles/kg oral): 6.4 ± 0.6 g; Food consumption ([5]; 0.17 mmoles/kg oral): 6.8 ± 0.7 g; Food Consumption, % of control [6, 23]: 167 % of control; Food consumption [6, 23]: 800 g; Food consumption ([6]; test days -2, -1, before dosing (control period)): 479 ± 96 g
O=C(O)CC(O)(C(=O)O)C(O)C(=O)O (single isomer, unassigned) [hydroxycitric acid, reference compound] |  |  |  |  |  |  |  |  |  |  |  |  |  |  |  |  |  |  |  |  | metabolic activity on lipid (fatty acid) and cholesterol syntheses [7]: inhibition of fatty acid and cholesterol syntheses; delay in gastric emptying (Stomach Emptying; comparable doses): delayed gastric emptying
